What all share (experiment): relative viability (nuclei count vs DMSO), 5 days (fraction); higher = more cells survive
Compound in assay [1]: CN1CCN(CC1)C2=CC(=C(C=C2)NC3=NC=C4C(=N3)N(C5=CC=CC=C5C(=O)N4C)C)OC [XMD8-85] + COc1cc2c(Oc3ccc(NC(=O)C4(C(=O)Nc5ccc(F)cc5)CC4)cc3F)ccnc2cc1OCCCN1CCOCC1 [Foretinib] (partner 0.25 µM)
The gist of the method:
(§1)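 Relative viability equals treated-well nuclei counts divided by vehicle-well nuclei counts. Counts came from 4× images of lung cancer cell lines grown in 1536-well plates for 5 days after pin-tool dosing on the day after seeding. Dosing used one drug alone or a fixed anchor-drug dose plus five library-drug doses (not always all listed) in √10 steps, and values are medians of duplicate plates.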

Compound in assay [2]: CN1CCN(CC1)C2=CC(=C(C=C2)NC3=NC=C4C(=N3)N(C5=CC=CC=C5C(=O)N4C)C)OC [XMD8-85] + CS(=O)(=O)CCNCc1ccc(-c2ccc3ncnc(Nc4ccc(OCc5cccc(F)c5)c(Cl)c4)c3c2)o1 [Lapatinib] (partner 2 µM)
Put shortly:
as §1

Compound in assay [3]: O=C(O)C(Cc1ccccc1[N+](=O)[O-])=NNc1nc(-c2ccc(Cl)c(Cl)c2)cs1 (mixture of isomers) [4EGI-1] + COc1cccc2cc(-c3nc([C@H]4CC[C@H](C(=O)O)CC4)n4ncnc(N)c34)[nH]c12 [OSI-027] (partner 0.5 µM)
The gist of the method:
as §1

Compound in assay [4]: O=C(O)C(Cc1ccccc1[N+](=O)[O-])=NNc1nc(-c2ccc(Cl)c(Cl)c2)cs1 (mixture of isomers) [4EGI-1] + NC(=O)Nc1cc(-c2cccc(F)c2)sc1C(=O)N[C@H]1CCCNC1 [AZD7762] (partner 0.2 µM)
The gist of the method:
as §1

For the cell line NCI-H2228, the relative viability in assay [1] (first compound 0.08 µM) amounted to 0.88; in assay [1] (first compound 0.253 µM), 0.758; in assay [1] (first compound 0.8 µM), 0.789; in assay [1] (first compound 2.53 µM), 0.816; in assay [1] (first compound 8 µM) it was 0.423; in assay [2] (first compound 0.08 µM), 0.827. The relative viability amounted to 0.93 in assay [2] (first compound 0.253 µM); 1.14 in assay [2] (first compound 0.8 µM); 0.549 in assay [2] (first compound 8 µM); 0.674 in assay [3] (first compound 0.5 µM); 0.54 in assay [3] (first compound 1.581 µM); 0.594 in assay [3] (first compound 5 µM). Moreover, the figures for the relative viability in assay [3] (first compound 15.81 µM) and in assay [3] (first compound 50 µM) were 0.607 and 0.13, respectively.

For the cell line NCI-H522, the relative viability is 0.69 in assay [3] (first compound 0.5 µM); 0.645 in assay [3] (first compound 1.581 µM); 0.693 in assay [3] (first compound 5 µM); 0.689 in assay [3] (first compound 15.81 µM); 0.63 in assay [3] (first compound 50 µM); 0.947 in assay [4] (first compound 0.5 µM). The relative viability is 0.71 in assay [4] (first compound 1.581 µM), 0.985 in assay [4] (first compound 5 µM), 0.874 in assay [4] (first compound 15.81 µM) and 0.783 in assay [4] (first compound 50 µM).

Regarding SK-MES-1, the relative viability turned out to be 0.888 in assay [1] (first compound 0.08 µM); 0.712 in assay [1] (first compound 0.253 µM); 0.875 in assay [1] (first compound 0.8 µM); 1 in assay [1] (first compound 2.53 µM); 0.57 in assay [1] (first compound 8 µM); 0.443 in assay [2] (first compound 0.08 µM). Besides, the relative viability in assay [2] (first compound 0.253 µM) was 0.493; in assay [2] (first compound 0.8 µM), 0.446; in assay [2] (first compound 2.53 µM), 0.464; in assay [2] (first compound 8 µM), 0.419; in assay [3] (first compound 0.5 µM), 0.704; in assay [3] (first compound 1.581 µM) it was 0.523. Besides, the relative viability in assay [3] (first compound 5 µM) was 0.611; in assay [3] (first compound 15.81 µM) it was 0.548; in assay [3] (first compound 50 µM), 0.199.

For EBC-1, the relative viability amounted to 0.104 in assay [1] (first compound 0.08 µM); 0.0951 in assay [1] (first compound 0.253 µM); 0.112 in assay [1] (first compound 0.8 µM); 0.0978 in assay [1] (first compound 2.53 µM); 0.0972 in assay [1] (first compound 8 µM); 0.2 in assay [2] (first compound 0.08 µM). Besides, the relative viability was 0.21 in assay [2] (first compound 0.253 µM), 0.174 in assay [2] (first compound 0.8 µM), 0.184 in assay [2] (first compound 2.53 µM) and 0.172 in assay [2] (first compound 8 µM).

As for LCLC-103H, the relative viability in assay [1] (first compound 0.08 µM) is 0.842; in assay [1] (first compound 0.253 µM), 0.919; in assay [1] (first compound 0.8 µM), 0.692; in assay [1] (first compound 2.53 µM), 0.857; in assay [1] (first compound 8 µM) it was 0.554; in assay [3] (first compound 0.5 µM) it was 0.479. The relative viability in assay [3] (first compound 1.581 µM) was determined as 0.469; in assay [3] (first compound 5 µM) it was 0.482; in assay [3] (first compound 15.81 µM), 0.471; in assay [3] (first compound 50 µM) it was 0.333; in assay [4] (first compound 0.5 µM), 0.868; in assay [4] (first compound 1.581 µM) it was 0.727. Further, the relative viability amounted to 0.788 in assay [4] (first compound 5 µM), 0.756 in assay [4] (first compound 15.81 µM) and 0.446 in assay [4] (first compound 50 µM).

Turning to COR-L23, the relative viability was 1.02 in assay [1] (first compound 0.08 µM); 1.05 in assay [1] (first compound 0.253 µM); 1.06 in assay [1] (first compound 0.8 µM); 0.998 in assay [1] (first compound 2.53 µM); 0.773 in assay [1] (first compound 8 µM); 0.896 in assay [2] (first compound 0.08 µM). The relative viability in assay [2] (first compound 0.253 µM) was found to be 1.09; in assay [2] (first compound 0.8 µM), 1.11; in assay [2] (first compound 2.53 µM), 1.08; in assay [2] (first compound 8 µM), 0.913; in assay [3] (first compound 0.5 µM) it was 0.899; in assay [3] (first compound 1.581 µM), 0.459. Also, the values for the relative viability in assay [3] (first compound 5 µM), in assay [3] (first compound 15.81 µM) and in assay [3] (first compound 50 µM) were 0.848, 0.542 and 0.138, respectively.

For the origin of these results see the supplement of paper PMC10307832.
